The source of these data is US12122821B2, “Regulation of glucose metabolism using anti-CGRP antibodies” (H. LUNDBECK A/S, priority 2013, dated 2024).

Molecules are shown by their SMILES. Entries after “also recorded” stand apart in the source; their conditions may differ.

The test system of one assay is Normal rats. The assay can be described thus: Hyperinsulinemic-euglycemic clamp, whole body glucose fluxes in normal rats (Example 1). It counts as in vivo, rat. As to conditions: vs vehicle. As for the experimental part:
To assess the effect on whole body insulin sensitivity, a clamp procedure was performed using 0.3 U/kg/h insulin and ^3H-glucose. Rats were fasted for 6 hours before 180 minutes of perfusion. Steady state was reached after 140 minutes of infusion and the means of glucose infusion rate (GIR), whole body glucose turn over (GTO), hepatic glucose production (HGP), glycolysis, and glycogen synthesis were calculated from 140 min. to 180 min. A bolus of 14-C-2-deoxyglucose was administered 1 hour before the end of the clamp to measure tissue specific glucose utilization.
The hyperinsulinemic-euglycemic clamp was performed using ^3H-glucose as a tracer and 0.3 U/kg/h insulin infusion from 02:00 pm (T0) to 05:00 pm (T+3 h). A glucose solution was infused in parallel and the infusion rate was adjusted to reach the steady state (˜100+/−10 mg/dL). Blood glucose was measured from the tip of the tail using glucometers every 10 minutes. Blood was collected (10 μL) from the tip of the tail during the last hour (steady state) and the following parameters were assessed: Glucose infusion rate; Whole body glucose utilization rate; Hepatic glucose production rate; Whole body glycogen and glycolytic rates.
Whole body Glucose fluxes.

For a further assay, the system named is HFD rats. The assay can be described thus: 2-step hyperinsulinemic-euglycemic clamp in HFD rats (Example 2). It is filed as in vivo, rat. The note with it: metformin 200 mg/kg/day, vs HFD vehicle. As for the experimental part: Six-week HFD fed rats were treated for 2 weeks with Ab14, and a 2-step hyperinsulinemic euglycemic clamp was performed to assess insulin sensitivity. A physiological dose of insulin was used during the first step and a pharmacological dose of insulin was used during the second step to assess the effects of […] insulin sensitivity, respectively, under these two conditions.
Body weight and food consumption were measured 3 times per week until 10 days of treatment. HOMA-IR was measured on day 10 and 15. A 2-step clamp (5 mU/kg/min and then 15 mU/kg/min insulin) was performed on day 15 or 16. Glucose Turnover (GTO) was assessed using ^3H-glucose tracer infusion during the clamp procedure.
On day 15 or 16, the 2-step hyperinsulinemic-euglycemic clamp was performed using ^3H-glucose as a tracer (except in the normal chow group), and 5 mU/kg/min insulin infusion from 02:00 pm (T0) to 04:00 pm (T+2 h), followed by 15 mU/kg/min insulin infusion from 04:00 pm to 05:30 pm (t+3.5 h). A glucose solution was infused in parallel and the infusion rate was adjusted to reach the steady state (100±10 mg/dL). Blood glucose was measured from the tip of the tail using glucometers every 10 minutes. Blood was collected (10 μL) regularly from the tip of the tail during the steady states of each step.
The following parameters were assessed: Glucose infusion rate (in all groups); Whole body glucose utilization rate (except in the normal chow group); Hepatic glucose production rate (except in the normal chow group); Whole body glycogen and glycolytic rates (except in the normal chow group).

For assay [1], the system named is Zucker diabetic fatty (ZDF) rat. The assay can be described thus: Fructosamine and HbA1c in ZDF rats (Example 3). It is filed as in vivo. As to conditions: metformin 200 mg/kg/day, vs vehicle ZDF. How it is done: For the groups treated with AB14, the antibody was administered once weekly via the caudal vein (i.v., 5 mL/kg) on days 1, 8, 15, and 22 at two different doses 20 mg/kg/week (groups 3 and 7) or 60 mg/kg/week (groups 4 and 8). All other groups were treated once weekly with vehicle 1 (i.v., 5 mL/kg). The intravenous treatments were performed in the morning on day 1, 8, 15, and 22 while under isoflurane anaesthesia. The volume of administration was individually adapted according to the most recent body weight.
All other groups were treated daily with vehicle 2 (p.o., 5 mL/kg) for 28 days. The most recent body weight was used to calculate the average volume of administration in each group.
Fasting blood glucose (glucometers) was measured on days 0, 12, 19, and 26. Fasting plasma insulin, peptide-C (ELISA method), free fatty acids, triglycerides, total cholesterol (colorimetric method), and HDL-cholesterol (phosphotungstate precipitation, colorimetric method) were measured on day 0, and prior to dosing on days 12, 19, and day 26. Non HDL-cholesterol was calculated as total cholesterol—HDL-cholesterol. Fructosamine was measured on days 0, 19 and 28. HbA1c (DCA 2000) was measured on days 0 and 28.

[2] abbreviates: clamp 0.3 U/kg/h insulin, 140-180 min, Ab14 100 mg/kg i.v., metformin 500 mg/kg p.o.

`CN(C)C(=N)N=C(N)N` [metformin, reference compound]: the “GIR evolution during clamp” value in the assay with Normal rats (Ab14 100 mg/kg i.v., metformin 500 mg/kg p.o.) is “significantly increased”. Further, in the assay with Normal rats (clamp 0.3 U/kg/h insulin, 140-180 min, Ab14 100 mg/kg i.v. 48 h before, metformin 500 mg/kg p.o. 24 h and 4 h before), the “increase of glucose infusion rate (GIR)” value was found to be 27%. Moreover, in the assay on Normal rats (setting [2]), the “increase of glycolysis rate” value is listed as 43% and the “increase of whole body glucose turn over (GTO)” value is 30%. In the assay on HFD rats (5 mU/kg/min insulin, Ab14 treated groups (10, 30, 100 mg/kg)), the “GIR (plateau) during the first clamp step” value is listed as “increasing effect upon GIR that was comparatively less in magnitude; also recorded: no effect”. Moreover, the “increase of mean GIR, first step” value in the assay with HFD rats (5 mU/kg/min insulin, ns) is on record as 11%. In the assay on HFD rats (15 mU/kg/min insulin), the “HGP, second step” value is “completely inhibited” and the “increase of mean GIR, second step” value is reported as 27%. Also, the “decrease of HbA1c” value in assay [1] (28 days, pioglitazone 10 mg/kg/day) is listed as 15%. Also, in assay [1] (day 19, pioglitazone 10 mg/kg/day), the “reduction of fructosamine levels” value stood at 6%.
